Experimental findings from patent US20110251135A1, “INHIBITORS OF PERITONEAL SEEDING OF CANCER CELLS” (University of Utah Research Foundation, priority 2008, published 2011) are described below.

One assay concerns HCT-116 cells. Kind of assay: Intraabdominal seeding model, intraperitoneal injection of colon cancer cells into athymic mice (21 days). Type of assay: in vivo, mouse. Particulars: HCT-116 IP in athymic mice; after 21 days; regardless of vehicle or BAY 11-7085. From the text: FIG. 6 is a group of photographs showing an intraabdominal seeding model. FIGS. 6A, B, C show tumor implants of the liver of three athymic mice 21 days after receiving intraperitoneal injections of HT-29 cells. The mice were pretreated and treated for a total of 21 days with DMSO twice weekly. […] The mouse was pretreated and treated for a total of 21 days with DMSO twice weekly. FIG. 6E is a micrograph showing tumor invasion through the liver capsule. This section was obtained from the tumor implant from the mouse in FIG. 6A. […] FIG. 6G, (liver), FIG. 6H, (abdominal wall), and FIG. 6I, (intestinal) show tumor implants in three athymic mice 21 days after receiving intraabdominal injections of HCT-116 cells. All of the mice were treated with 5 mg/kg of BAY 11-7085 twice weekly.
HT-29 and HCT-116 cells were harvested in 0.25% trypsin-PBS-EDTA, washed once in media and PBS, and resuspended in PBS at 1 million cells per 200 μL. […] Subcutaneous tumor sizes were determined by measuring the length and width with calipers. […]
During colorectal cancer surgery, seeding of the peritoneal cavity by tumor cells with tumor cell implantation of the peritoneal surfaces can occur. Seeding results from the transient suspension of cancer cells, through a loss of adhesion either naturally ro because of surgical displacement, followed by readhesion to other tissues. […]

The next assay has as its system NF-κB. Kind of assay: NF-κB binding activity assay (TRANS-AM) in HT-29 cells. Type of assay: cell-based, human. As to the method:
The transiently suspended cells were lysed and allowed to bind to DNA oligonucleotides, containing the NF-κB consensus binding site, that were immobilized to 96-well plates. NF-κB protein bound to the oligonucleotides was detected by an antibody to the p65 subunit that only recognized p65 that is bound to DNA. The positive control was HeLa cells that were stimulated with TNFα. A control was performed using excess free NF-κB oligonucleotides (Competitor). […] NF-κB binding activity was determined by the TransAM assay as in FIG. 5A. […] The data shown represent typical results of three separate experiments. […] An immunoblot for COX-2 was performed.
Activation of NF-κB was also determined using the TRANS-AM™ assay (Active Motif, Carlsbad, Calif.) per the manufacturer's instructions. (Renard et al., “Development of a sensitive multi-well colorimetric assay for active NF-κB,” Nucleic Acids Res 29, E21, 2001). Briefly, cell monolayers on 60 mm dishes were washed with ice-cold PBS and removed by incubating in trypsin-PBS or scraping. The cells were centrifuged for 10 minutes at 1,000 rpm at 4° C. and resuspended for 10 minutes in 100 μL of 4° C. lysis buffer (20 mM HEPES (pH 7.5), 350 mM NaCl, 20% glycerol, 1% Igepal-CA630, 1 mM MgCl2, 0.5 mM EDTA, 0.1 mM EGTA, 1 μL of 1 M dithiothreitol and 10 μL of protease inhibitor cocktail (proprietary) per mL of lysis buffer). The lysates were centrifuged for 20 minutes at 14,000 g at 4° C. Lysates containing 5 μg of total protein were added to 20 μL of lysis buffer per well in 96-well dishes containing immobilized oligonucleotides corresponding to the NF-κB consensus DNA binding site (SEQ ID NO:2) (5′-[…]-3′). […] 100 μL of stop solution (0.5M H2SO4) was added to each well after which the absorbance was determined on a plate spectrophotometer at 450 nm. Specificity of binding was determined using 200-fold excess wildtype NF-κB oligonucleotides added at the time the cell lysates were added to the wells.
The same NF-κB binding assay was used to determine whether NF-κB inhibitors could diminish the activation of NF-κB by readhesion. […]

“Also recorded” adds a separate entry of the source.

In the case of `CC(C)(C)c1ccc(S(=O)(=O)/C=C/C#N)cc1` [BAY 11-7085, (2E)-3-[4-(tertiarybutylphenyl)sulfonyl]-2-propenenitrile], the “metastases of parietal and visceral peritoneum” value in the assay with HCT-116 cells is “clear evidence of metastases”. Also, the “constitutive NF-κB activation in adherent cells” value in the assay with NF-κB (adherent cells, increasing concentrations, up to 50 μM, 8 hours) was “relatively unaffected; also recorded: could not be inhibited”. The “NF-κB activation induced by readhesion of transiently suspended colon cancer cells” value in the assay with NF-κB (as little as 10 μM BAY 11-7085) is “almost totally inhibited”. The “NF-κB activation caused by readhesion (TRANS-AM)” value with NF-κB (transiently suspended HT-29, increasing concentrations, 8 hours) is reported as “dose-related inhibition of this NF-κB activation”.
